Data as given in patent USRE39496E1, “Kahalalide F and compositions and uses thereof” (PharmaMar, S.A., priority 1993, dated 2007).

Key:
[1] = tested on: Tricophyton mentagrophy; conditions: 50 μg/disk
[2] = tested on: Penicillium notatum; conditions: 50 μg/disk
[3] = tested on: Aspergillus oryzae; conditions: 50 μg/disk
[4] = tested on: human lung carcinoma A-549; test: In vitro cytotoxicity, A-549 cell culture; format: cell-based; conditions: A-549 cells
Method: (§1) The antitumor activities of this compound has been determined “in vitro” in cell cultures of human lung carcinoma A-549 and human colon carcinoma HT-29. The procedure was carried out using the metnhodology methodology described by Raymond J. Bergeron et al. Biochem. Bioph. Res. Comm. 1984, 121(3), 848-854 and by Alan C. Schroeder et al. J. Med. Chem. 1981, 24 1078-1083.

[5] = tested on: HSV II; conditions: Mv 2 Lu cells / HSV II; concentration giving the printed % reduction
[6] = tested on: VSV
[7] = tested on: HSV-1; conditions: CV-1 cells / HSV-1
[8] = tested on: human colon carcinoma HT-29; test: In vitro cytotoxicity, HT-29 cell culture; format: cell-based; conditions: HT-29 cells
Method: as §1

[9] = tested on: Saccharomyces cerevisiac; conditions: 50 μg/disk
[10] = tested on: Candida albicans; conditions: 50 μg/disk

C/C=C1\NC(=O)[C@H](Cc2ccccc2)NC(=O)[C@@H](C(C)C)NC(=O)[C@@H]([C@@H](C)CC)NC(=O)[C@H](NC(=O)[C@H](NC(=O)[C@H](CCCN)NC(=O)[C@H]2CCCN2C(=O)[C@H](NC(=O)[C@@H](NC(=O)[C@@H](NC(=O)[C@H](NC(=O)CCCC(C)C)C(C)C)[C@@H](C)O)C(C)C)C(C)C)[C@@H](C)CC)[C@@H](C)OC(=O)[C@H](C(C)C)NC1=O [Kahalalide F]
Antifungal 6 mm disk [1]: 34 mm | Antifungal 6 mm disk [2]: 26 mm | Antifungal 6 mm disk [3]: 19 mm | Cytoxicity (IC50) [4]: 2.5 µg/mL | Antiviral [5]: 0.5 µg/mL | Antiviral [6]: >8 µg/mL | Antiviral [7]: >8 µg/mL | Cytoxicity (IC50) [8]: 0.25 to 0.5 µg/mL | Antifungal 6 mm disk [9]: neg | Antifungal 6 mm disk [10]: 16 mm
